Assay results as given in patent US10919885B2, “Compounds and uses thereof” (Yumanity Therapeutics, Inc., priority 2018, dated 2021).

Columns and labels:
human SCD1 = human SCD1 (Homo sapiens (Human), UniProt O00767); experiment: Yeast growth assay, strain expressing human SCD1 as the sole desaturase (reduced growth as surrogate for SCD inhibition); type: cell-based; settings: yeast with OLE1 deleted expressing human SCD1 from a plasmid; growth read as OD600 after 40 h at 30° C.; top drug concentration 33.3 μM
Sequence of human SCD1 (O00767 whole entry): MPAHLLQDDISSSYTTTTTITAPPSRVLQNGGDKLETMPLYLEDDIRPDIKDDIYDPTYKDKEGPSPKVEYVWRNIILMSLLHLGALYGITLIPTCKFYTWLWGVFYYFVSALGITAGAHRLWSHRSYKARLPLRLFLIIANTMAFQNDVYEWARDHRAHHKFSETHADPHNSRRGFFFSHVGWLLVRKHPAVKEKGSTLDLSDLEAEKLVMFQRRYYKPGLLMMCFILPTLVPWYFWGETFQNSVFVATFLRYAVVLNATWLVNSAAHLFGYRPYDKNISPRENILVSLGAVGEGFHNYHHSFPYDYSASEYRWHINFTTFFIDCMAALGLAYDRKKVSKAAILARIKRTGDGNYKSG
Method in brief: (§1)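 Yeast lacking OLE1 depend on plasmid-borne human SCD1 or SCD5 and are tested in SD-Ura medium without oleic/palmitoleic acid or Tween.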

human SCD5 = human SCD5 (Homo sapiens (Human), UniProt Q86SK9); experiment: Yeast growth assay, strain expressing human SCD5 as the sole desaturase (reduced growth as surrogate for SCD inhibition); type: cell-based; settings: yeast with OLE1 deleted expressing human SCD5 from a plasmid; growth read as OD600 after 40 h at 30° C.; top drug concentration 33.3 μM
Sequence of human SCD5 (Q86SK9 whole entry): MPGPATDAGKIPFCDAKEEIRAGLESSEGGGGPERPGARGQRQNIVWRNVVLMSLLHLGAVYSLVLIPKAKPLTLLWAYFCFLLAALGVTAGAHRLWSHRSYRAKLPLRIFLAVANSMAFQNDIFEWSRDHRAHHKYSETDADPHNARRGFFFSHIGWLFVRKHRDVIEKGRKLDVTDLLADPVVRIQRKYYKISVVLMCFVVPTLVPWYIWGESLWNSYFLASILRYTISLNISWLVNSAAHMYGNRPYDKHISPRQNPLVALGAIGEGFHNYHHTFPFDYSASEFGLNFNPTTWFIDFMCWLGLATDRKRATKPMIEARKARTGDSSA
Method in brief: as §1

Row | SMILES | IC50 (human SCD1) [µM] | IC50 (human SCD5) [µM]
1 | COc1ccc(-c2cc(C(=O)N3CC(c4ccccc4)C3)no2)nn1 [Compound 255, (5-(6-methoxypyridazin-3-yl)isoxazol-3-yl)(3-phenylazetidin-1-yl)methanone] | 23 | 1.8
2 | O=C(c1cc(-c2ccc3c(c2)OCO3)on1)N1CCC(c2ccccc2)C1 (stereo not drawn) [Compound 329] | > 45 | > 45
3 | O=C(c1cc(-c2ccccc2)on1)N1CCC(c2ccccc2)CC1 [Compound 314, (5-phenylisoxazol-3-yl)(4-phenylpiperidin-1-yl)methanone] | > 45 | 1.63
4 | O=C(c1cc(-c2ccncc2)on1)N1CCC[C@H]1c1ccccc1 [Compound 409] | 23 | > 45
5 | CNC(=O)c1ccccc1-c1cc(C(=O)N2CCC(c3ccccc3)CC2)no1 [Compound 301, N-methyl-2-[3-(4-phenylpiperidine-1-carbonyl)isoxazol-5-yl]benzamide] | > 45 | 6.58
6 | O=C(c1cc(-c2ccc3c(c2)OCO3)on1)N1COCC1c1ccccc1 (stereo not drawn) [Compound 406] | > 45 | > 45
7 | O=C(c1cc(-c2ccc3c(c2)OCO3)on1)N1CC2(C1)CC(O)(c1ccccc1)C2 [Compound 224] | > 45 | 0.95
8 | O=C(c1cc(-c2ccccc2)on1)N1CCN(c2cccc(F)c2)CC1 [Compound 294] | 0.21 | > 45
9 | O=C(c1cc(-c2ccccc2)on1)N1CCC(c2ccccc2F)C1 (stereo not drawn) [Compound 335] | > 45 | > 45
10 | CC(C)c1cc(C(=O)N2CC(c3ccccc3)C2)no1 [Compound 250] | > 45 | > 45

Now from value to molecule:

Row | IC50 (human SCD1) [µM] | IC50 (human SCD5) [µM] | SMILES
11 | > 45 | > 45 | Cc1nn(C)c(C)c1NC(=O)c1cc(-c2ccco2)on1 [Compound 1]
12 | > 45 | 2.79 | O=C(c1cc(-c2ccco2)on1)N1CCC(c2ccccc2)C1 (stereo not drawn) [Compound 338]
13 | 33.3 | > 45 | O=C(c1cc(-c2cccnc2)on1)N1CCC[C@H]1c1ccccc1 [Compound 405]
14 | > 45 | 4.87 | Cc1nn(Cc2ccc(Cl)c(Cl)c2)cc1NC(=O)c1cc(-c2ccco2)on1 [Compound 17, N-(1-(3,4-dichlorobenzyl)-3-methyl-1H-pyrazol-4-yl)-5-(furan-2-yl)isoxazole-3-carboxamide]
15 | > 45 | > 45 | O=C(NC1CCN(Cc2ccccc2)CC1)c1cc(-c2ccco2)on1 [Compound 285]
16 | > 45 | > 45 | O=C(Nc1cnn(Cc2ccccc2)c1)c1cc(-c2ccccc2F)no1 [Compound 130]
17 | 0.321 | 3.14 | O=C(c1cc(-c2ccncn2)on1)N1CC(c2ccccc2)C1 [Compound 257, (3-phenylazetidin-1-yl)(5-(pyrimidin-4-yl)isoxazol-3-yl)methanone]
18 | 5.8 | > 45 | CC(C)(C)OC(=O)Nc1cc(C(=O)Nc2cnn(Cc3ccccc3)c2)no1 [Compound 181]
19 | > 45 | > 45 | O=C(c1cc(-c2ccc3c(c2)OCO3)on1)N1CCn2ccnc2C1 [Compound 269]
20 | 0.048 | 1.9 | C=Cc1cc(C(=O)Nc2cnn(Cc3cccc(F)c3)c2)no1 [Compound 106, N-(1-(3-fluorobenzyl)-1H-pyrazol-4-yl)-5-vinylisoxazole-3-carboxamide]
21 | > 45 | > 45 | O=C(Nc1cnn(Cc2cc(F)ccc2C(F)(F)F)c1)c1cc(-c2ccccc2)on1 [Compound 74]
22 | > 45 | 6.42 | O=C(Nc1cnn(CCCC(F)(F)F)c1)c1cc(-c2ccco2)on1 [Compound 34, 5-(2-furyl)-N-[1-(4,4,4-trifluorobutyl)pyrazol-4-yl]isoxazole-3-carboxamide]
23 | > 45 | > 45 | O=C(Nc1cnn(Cc2ccccc2)c1)c1cc(-c2ccc(F)cn2)on1 [Compound 137]
24 | > 45 | > 45 | CS(=O)(=O)CCC(c1ccccc1)n1cc(NC(=O)c2cc(-c3ccccc3)on2)cn1 (stereo not drawn) [Compound 75]
